Data: ChEMBL document CHEMBL2406917, “Phaeolschidins A-E, five hispidin derivatives with antioxidant activity from the fruiting body of Phaeolus schweinitzii collected in the Tibetan Plateau” (J Nat Prod, 2013)
Activity calls are given as the source filed them. The calls are words filed in the database; no cut-off is given here.

Assays:
[1] = test system: SW480; experiment: Cytotoxicity against human SW480 cells up to 200 uM by MTT assay; type: cell-based
[2] = test system: HCT-116; experiment: Cytotoxicity against human HCT116 cells up to 200 uM by MTT assay; type: cell-based
[3] = test system: Liver; experiment: Antioxidant activity against Fe2+/ascorbic acid-induced lipid peroxidation in mouse liver homogenates assessed as total MDA level at 200 uM after 1.5 hrs; type: functional, tissue-based
[4] = test system: Liver; experiment: Antioxidant activity against Fe2+/ascorbic acid-induced lipid peroxidation in mouse liver homogenates after 1.5 hrs; type: functional, tissue-based
[5] = Total antioxidant capacity of the compound at 25 uM relative to control; type: physicochemical
[6] = Total antioxidant capacity of the compound at 50 uM relative to control; type: physicochemical
[7] = Total antioxidant capacity of the compound at 100 uM relative to control; type: physicochemical
[8] = Total antioxidant capacity of the compound at 200 uM relative to control; type: physicochemical
[9] = test system: Radical scavenging activity; experiment: Antioxidant activity assessed as DPPH free radical scavenging activity after 30 mins; type: functional

IC50 [4] | TAC [5] | TAC [6] | TAC [7] | TAC [8] | IC50 [9] | Structure (SMILES) | Activity [1] | Activity [2] | Activity [3]
> 200 µM | 3.61 U | 5.28 U | 7.6 U | 10.81 U | 95.9 µM | CC(C)CC(c1c(O)cc(/C=C/c2ccc(O)c(O)c2)oc1=O)c1c(O)cc(/C=C/c2ccc(O)c(O)c2)oc1=O | Non-toxic | Non-toxic | Active
– | 3 U | 3.4 U | 6.5 U | 11.06 U | 95.3 µM | COC(=O)CCC(c1c(O)cc(/C=C/c2ccc(O)c(O)c2)oc1=O)c1c(O)cc(/C=C/c2ccc(O)c(O)c2)oc1=O | Non-toxic | Non-toxic | –
> 200 µM | 5.83 U | 9.27 U | 10.03 U | 10.25 U | 58.8 µM | O=c1cc(O)cc(/C=C/c2ccc(O)c(O)c2)o1 [HISPIDIN] | Non-toxic | Non-toxic | Active
– | 2.41 U | 2.78 U | 4.24 U | 6.91 U | > 200 µM | O=C1CC(c2c(O)cc(/C=C/c3ccc(O)c(O)c3)oc2=O)CN1 (stereo unspecified) | Non-toxic | Non-toxic | –
– | 17.33 U | 17.42 U | 18.97 U | 21.68 U | – | O=C1O[C@H]([C@@H](O)CO)C(O)=C1O [ASCORBIC ACID] | – | – | –
> 200 µM | 2.1 U | 2.88 U | 4.8 U | 5.39 U | > 200 µM | CC(C)C(c1c(O)cc(/C=C/c2ccc(O)c(O)c2)oc1=O)c1c(O)cc(/C=C/c2ccc(O)c(O)c2)oc1=O | Non-toxic | Non-toxic | Active
– | 6.82 U | 8.41 U | 9.74 U | 10.74 U | 88.7 µM | O=C(O)CCC(c1c(O)cc(/C=C/c2ccc(O)c(O)c2)oc1=O)c1c(O)cc(/C=C/c2ccc(O)c(O)c2)oc1=O | Non-toxic | Non-toxic | –
> 200 µM | 2.02 U | 2.67 U | 3.46 U | 5.16 U | > 200 µM | CC(c1c(O)cc(/C=C/c2ccc(O)c(O)c2)oc1=O)c1c(O)cc(/C=C/c2ccc(O)c(O)c2)oc1=O [PINILLIDINE] | Non-toxic | Non-toxic | Active
